Results as given in patent US12319652B2, “Salts and solid forms of (R)-1-(5-methoxy-1H-indol-1-yl)-N,N-dimethylpropan-2-amine” (priority 2021, dated 2025).
Like-named read-outs stand apart in the source and are kept apart here.

Assays:
[1] = type: physicochemical
Procedure: Equilibrium Humidity Evaluation (40° C./75% RH for 10 Days)
100 mg portions of compound 1 salts (for inputs see table below) were placed in the relevant open vials. The powders were finely divided and distributed evenly over the base of the vial, such that equal material coverage across the panel was observed. These samples were then maintained 40°C. under 75% RH. The samples were sub-sampled at intervals of 5 and 10 days and analysed by ^1H NMR, HPLC, XRPD, DSC, TGA and PLM, for evidence of phase change or chemical degradation (FIG. 269-297).

[2] = Solubility determinations in SIF buffers (FaSSIF, FeSSIF, FaSSGF); type: physicochemical
Procedure: At this stage ca. 1 g of each front-runner salt form was prepared. Salt forms that offered significant solubility and stability advantages over the non-ionized API were prioritized. […] Scale Up
The solubility of the salts below was determined in FaSSIF, FeSSIF and FaSSGF by reference to the calibration curve of amorphous compound 1.
Separate portions of compound 1 were weighed out into aluminum boats and were charged to the relevant volumetric flasks. Solutions were made to volume with 1 to 1 (v/v) acetonitrile/purified water to give calibrants of known API concentrations and analyzed by HPLC, suitable to determine the concentration of compound 1 free base in the SIF buffer solubility study.
Each sample (150 mg) was suspended in the relevant SIF buffer (5.0 ml), to give a concentration of 30 mg/ml and maintain at 37° C. for 24 h. The pH was adjusted using 1 M HCl or 1 M NaOH, to ensure that the suspension remains in range.
Sample (1 ml) of the well-stirred representative suspensions was obtained at 1 h, 3 h, 6 h and 24 h and the pH was recorded. The pH of the bulk suspension was re-adjusted when necessary. The obtained sample from each vial was centrifuged, and the supernatant was analysed by HPLC (note, the analyte was diluted, when outside of the calibration range); XRPD analysis was performed on the wet sample pellet for evidence of form change, as well as on the oven-dried pellet (undervacuum at 40° C.).

## COc1ccc2c(ccn2C[C@@H](C)N(C)C)c1.Cl [HCl salt]
[1]; salt before storage (t = 0)
  HPLC peak RRT 0.93: 0.01
  HPLC peak RRT 0.98: 0.02
  HPLC peak RRT 0.99: 0.01
  HPLC peak RRT 1.00 (reference peak): 99.60
  HPLC peak RRT 1.20: 0.01
  HPLC peak RRT 1.22: 0.11
  HPLC peak RRT 1.26: 0.16
  HPLC peak RRT 1.30: 0.03
  HPLC peak RRT 1.32: 0.01
  HPLC peak RRT 1.35: 0.04
[1]; t = 5 d at 75% RH at 40° C.
  HPLC peak RRT 0.93: 0.05
  HPLC peak RRT 0.98: 0.02
  HPLC peak RRT 1.00 (reference peak): 99.42
  HPLC peak RRT 1.20: 0.02
  HPLC peak RRT 1.22: 0.42
  HPLC peak RRT 1.26: 0.02
  HPLC peak RRT 1.28: 0.02
  HPLC peak RRT 1.35: 0.04
[1]; t = 10 d at 75% RH at 40° C.
  HPLC peak RRT 0.93: 0.05
  HPLC peak RRT 0.98: 0.01
  HPLC peak RRT 1.00 (reference peak): 99.60
  HPLC peak RRT 1.22: 0.31
  HPLC peak RRT 1.35: 0.02

## COc1ccc2c(ccn2C[C@@H](C)N(C)C)c1.O=C(O)/C=C\C(=O)O [Maleate salt]
[1]; salt before storage (t = 0)
  HPLC peak RRT 0.93: 0.03
  HPLC peak RRT 0.98: 0.06
  HPLC peak RRT 1.00 (reference peak): 99.22
  HPLC peak RRT 1.10: 0.28
  HPLC peak RRT 1.13: 0.14
  HPLC peak RRT 1.17: 0.02
  HPLC peak RRT 1.18: 0.03
  HPLC peak RRT 1.19: 0.08
  HPLC peak RRT 1.25: 0.03
  HPLC peak RRT 1.34: 0.11
[1]; t = 5 d at 75% RH at 40° C.
  HPLC peak RRT 0.84: 0.31
  HPLC peak RRT 0.93: 0.05
  HPLC peak RRT 0.98: 0.03
  HPLC peak RRT 1.00 (reference peak): 99.09
  HPLC peak RRT 1.13: 0.21
  HPLC peak RRT 1.19: 0.10
  HPLC peak RRT 1.34: 0.22
[1]; t = 10 d at 75% RH at 40° C.
  HPLC peak RRT 0.84: 0.65
  HPLC peak RRT 0.93: 0.06
  HPLC peak RRT 0.98: 0.05
  HPLC peak RRT 1.00 (reference peak): 98.30
  HPLC peak RRT 1.13: 0.33
  HPLC peak RRT 1.19: 0.09
  HPLC peak RRT 1.22: 0.09
  HPLC peak RRT 1.25: 0.02
  HPLC peak RRT 1.26: 0.06
  HPLC peak RRT 1.28: 0.05
  HPLC peak RRT 1.32: 0.10
  HPLC peak RRT 1.34: 0.19

## COc1ccc2c(ccn2C[C@@H](C)N(C)C)c1.Cl [Compound 1 · HCl]
[2]; FaSSGF (ph 1.6), t = 1 h@37° C.
  Solubility: >30 mg/mL
[2]; FaSSGF (ph 1.6), t = 3 h@37° C.
  Solubility: >30 mg/mL
[2]; FaSSGF (ph 1.6), t = 6 h@37° C.
  Solubility: >30 mg/mL
[2]; FaSSGF (ph 1.6), t = 24 h @37° C.
  Solubility: >30 mg/mL
[2]; FaSSIF (ph 6.5), t = 1 h@37° C.
  Solubility: >30 mg/mL
[2]; FaSSIF (ph 6.5), t = 3 h@37° C.
  Solubility: >30 mg/mL
[2]; FaSSIF (ph 6.5), t = 6 h@37° C.
  Solubility: >30 mg/mL
[2]; FaSSIF (ph 6.5), t = 24 h @37° C.
  Solubility: >30 mg/mL
[2]; FeSSIF (ph 5.0), t = 1 h@37° C.
  Solubility: >30 mg/mL
[2]; FeSSIF (ph 5.0), t = 3 h@37° C.
  Solubility: >30 mg/mL
[2]; FeSSIF (ph 5.0), t = 6 h@37° C.
  Solubility: >30 mg/mL
[2]; FeSSIF (ph 5.0), t = 24 h @37° C.
  Solubility: >30 mg/mL
